Measured values published in paper PMC2962730 (Journal of neurochemistry, 2010).
Where a chain is given by its changes, count along the chain named.

Key:
[1] = biological target: T1, hVAChT W315A (Homo sapiens, UniProt Q16572, W315A); assay: [3H]ACh transport; assay type: biochemical
T1 sequence (Q16572 1-532 W315A): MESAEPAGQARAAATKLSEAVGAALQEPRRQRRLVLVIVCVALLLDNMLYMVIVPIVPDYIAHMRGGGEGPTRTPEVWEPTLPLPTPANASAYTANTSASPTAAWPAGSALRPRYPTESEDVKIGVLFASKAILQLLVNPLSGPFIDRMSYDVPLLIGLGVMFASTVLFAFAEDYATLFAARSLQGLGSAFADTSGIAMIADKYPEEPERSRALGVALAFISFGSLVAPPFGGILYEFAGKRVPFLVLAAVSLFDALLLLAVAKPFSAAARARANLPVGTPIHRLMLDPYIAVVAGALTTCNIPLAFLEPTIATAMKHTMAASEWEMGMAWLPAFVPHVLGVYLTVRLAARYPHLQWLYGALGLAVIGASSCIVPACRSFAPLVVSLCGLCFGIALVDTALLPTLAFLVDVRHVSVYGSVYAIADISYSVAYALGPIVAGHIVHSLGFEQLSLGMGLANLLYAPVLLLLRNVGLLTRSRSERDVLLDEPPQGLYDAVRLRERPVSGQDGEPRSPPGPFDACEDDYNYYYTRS

[2] = biological target: T2, hVAChT W325F (Homo sapiens, UniProt Q16572, W325F); assay: [3H]ACh transport; assay type: biochemical
T2 sequence (Q16572 1-532 W325F): T1 sequence (Q16572 1-532 W315A) with A315W, W325F

[3] = biological target: T2, hVAChT W325F; assay: ACh equilibrium binding by competition against [3H]vesamicol
[4] = biological target: T3, hVAChT F231A (Homo sapiens, UniProt Q16572, F231A); assay: [3H]vesamicol saturation binding; settings: pH 7.4
T3 sequence (Q16572 1-532 F231A): T1 sequence (Q16572 1-532 W315A) with F231A, A315W

[5] = read-out: KM, Michaelis-Menten constant for ACh transport, pH 7.4

SMILES	Vmax/Bmax, ACh transport normalized to Bmax ([1]; pH 7.4) [min⁻¹]	Km [1, 5] [µM]	Vmax/Bmax, ACh transport normalized to Bmax ([2]; pH 7.4) [min⁻¹]	Km [2, 5] [µM]	Kd [3] [mM]	FHA, fraction of the ACh sites that have high affinity ([3]; W325F hVAChT, pH 7.4)	Bmax, maximal specific [3H]vesamicol binding (VAChT expression level) [4] [pmol/mg]
CC(=O)OCC[N+](C)(C)C [ACh, acetylcholine]	5.2 ± 0.8	690 ± 220	5.0 ± 0.5	1000 ± 300	7.3 ± 1.6	0.74 ± 0.09	–
O[C@@H]1CCCC[C@H]1N1CCC(c2ccccc2)CC1 (racemic) [vesamicol, ( )-trans-2-(4-phenylpiperidino)cyclohexanol]	–	–	–	–	–	–	64 ± 4
